Residues, ends and D or L forms follow the SMILES beside them.
Experiments:
Settings in all cases: 25 nM protease, 10 µM peptide
trypsin-1 = trypsin-1 (Homo sapiens, UniProt P07477); test: Cleavage of peptides by purified trypsin-1, MALDI-TOF/TOF
Description: (§1) Trypsin-like proteases included in the experiments are trypsin-1, -2 and -3, tryptase (Enzo LifeSciences), thrombin (Sigma-Aldrich) and cathepsin G (Sigma-Aldrich). Trypsin-1, -2 and -3 were produced as described by Koistinen et al. and Wu et al.. Two elastase-like enzymes, neutrophil elastase (Enzo LifeSciences, Farmingdale, NY, USA) and pancreatic elastase I (Sigma-Aldrich) were included as well. All enzymes were from human origin except for pancreatic elastase from porcine pancreas.
(§2) Reaction mixtures with purified enzymes were compiled in an identical way. Each mixture contained an equimolar concentration of protease (25 nM based on) and 10 µM peptide of interest and was incubated for 2, 5, 10 and 30 min at 37 °C. Substance P was added as the standard peptide except for the reaction mixtures with substance P or bradykinin as the peptide of interest, where angiotensin II (Bachem) was added.
(§3) The TFA mixtures were thawed on ice and desalted using C18 zip-tips (Merck Millipore®, Burlington, MA, USA) with a capacity of 5 µg protein. Retained peptide fragments were eluted directly on the MALDI target plate. Next, 0.5 µL of a 2.5 mg/mL α-cyano-4-hydroxycinnamic acid (Sigma-Aldrich) matrix solution (in 70% acetonitrile, 0.1% TFA) was spotted on top of the sample. A 6-Peptide mixture Kit (AB Sciex, Framingham, MA, USA) containing bradykinin (2–9), angiotensin I, glu1-fibrinopeptide, ACTH (1–17), ACTH (18–39) and ACTH (7–38) was diluted with matrix and spotted on the plate as well.
(§4) MS and MS/MS data for peptide fragment identification were obtained with a MALDI-TOF/TOF instrument (4800 MALDI TOF/TOF™, Applied Biosystems, Waltham, MA, USA) and instrument parameters were set using 4000 Series Explorer™ software. MS spectra were recorded in positive reflector mode in a mass range from 500 to 4000 Da and laser intensity of 4500–4800 Hz. The spectra were calibrated using the calibration mixture mentioned above to a mass tolerance of 0.1 Da. MS/MS spectra were recorded with high-energy collision-induced dissociation and the laser intensity was increased by 10%. Precursor mass m/z 1570.65 (Glu1-Fibrinopeptide from the calibration mixture) was used to calibrate the MS/MS spectra to a mass tolerance of 0.1 Da.
(§5) MS and MS/MS spectra were processed using DataExplorer™ software and the obtained output files were uploaded in the MS-PEP data analyzer (https://bioit.shinyapps.io/PARs/ accessed 10/08/2020) for peptide fragment identification. Identified fragments were confirmed using the MS/MS spectra and mMass 5.5.0 by Martin Strohalm. The relative intensities of the fragments were calculated as the ratio of the intensity of the peak of interest to the intensity of the peak of the standard peptide.

trypsin-3 = biological target: T1, trypsin-3 (Homo sapiens, UniProt P35030); test: Cleavage of peptides by purified trypsin-3, MALDI-TOF/TOF
T1 sequence (P35030 1-304): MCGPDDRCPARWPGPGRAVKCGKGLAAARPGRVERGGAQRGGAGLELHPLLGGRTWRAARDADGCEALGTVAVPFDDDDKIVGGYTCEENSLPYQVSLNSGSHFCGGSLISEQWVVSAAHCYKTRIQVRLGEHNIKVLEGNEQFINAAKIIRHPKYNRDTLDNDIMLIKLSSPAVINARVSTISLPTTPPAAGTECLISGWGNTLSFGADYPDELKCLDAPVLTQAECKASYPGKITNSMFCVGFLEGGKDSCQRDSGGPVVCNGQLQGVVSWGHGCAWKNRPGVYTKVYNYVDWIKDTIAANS
Description: as §1, §2, §3, §4, §5

tryptase = tryptase (Homo sapiens, UniProt Q15661); test: Cleavage of peptides by purified tryptase, MALDI-TOF/TOF
Description: as §1, §2, §3, §4, §5

thrombin = thrombin (Homo sapiens, UniProt P00734); test: Cleavage of peptides by purified thrombin, MALDI-TOF/TOF
Description: as §1, §2, §3, §4, §5

cathepsin G = biological target: T2, cathepsin G (Homo sapiens, UniProt P08311); test: Cleavage of peptides by purified cathepsin G, MALDI-TOF/TOF
T2 sequence (P08311 21-255): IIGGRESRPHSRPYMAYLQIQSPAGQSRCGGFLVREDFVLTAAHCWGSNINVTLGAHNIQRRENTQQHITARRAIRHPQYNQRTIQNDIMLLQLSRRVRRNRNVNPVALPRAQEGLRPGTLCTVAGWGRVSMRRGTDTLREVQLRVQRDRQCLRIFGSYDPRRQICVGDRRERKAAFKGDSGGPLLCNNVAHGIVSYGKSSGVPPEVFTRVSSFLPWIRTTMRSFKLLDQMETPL
Description: as §1
(§6) Reaction mixtures with purified enzymes were compiled in an identical way. […] Substance P was added as the standard peptide except for the reaction mixtures with substance P or bradykinin as the peptide of interest, where angiotensin II (Bachem) was added.
as §3
as §4, with “10%.” for “10%. Precursor mass m/z 1570.65 (Glu1-Fibrinopeptide from the calibration mixture) was used to calibrate the MS/MS spectra to a mass tolerance of 0.1 Da.”
(§7) Identified fragments were confirmed using the MS/MS spectra and mMass 5.5.0 by Martin Strohalm. The relative intensities of the fragments were calculated as the ratio of the intensity of the peak of interest to the intensity of the peak of the standard peptide.

neutrophil elastase = biological target: T3, neutrophil elastase (Homo sapiens, UniProt P08246); test: Cleavage of peptides by purified neutrophil elastase, MALDI-TOF/TOF
T3 sequence (P08246 30-267): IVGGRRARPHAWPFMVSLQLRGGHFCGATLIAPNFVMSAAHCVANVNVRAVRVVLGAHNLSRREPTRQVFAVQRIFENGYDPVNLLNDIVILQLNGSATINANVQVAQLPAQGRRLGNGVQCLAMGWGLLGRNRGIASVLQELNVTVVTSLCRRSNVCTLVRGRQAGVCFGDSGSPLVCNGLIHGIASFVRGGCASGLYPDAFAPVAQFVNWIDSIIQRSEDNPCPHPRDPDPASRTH
Description: as §1, §6, §3
as §4, with “10%.” for “10%. Precursor mass m/z 1570.65 (Glu1-Fibrinopeptide from the calibration mixture) was used to calibrate the MS/MS spectra to a mass tolerance of 0.1 Da.”
as §7

pancreatic elastase I = pancreatic elastase I (Sus scrofa, UniProt P00772); test: Cleavage of peptides by purified pancreatic elastase, MALDI-TOF/TOF
Description: as §1, §6, §3
as §4, with “10%.” for “10%. Precursor mass m/z 1570.65 (Glu1-Fibrinopeptide from the calibration mixture) was used to calibrate the MS/MS spectra to a mass tolerance of 0.1 Da.”
as §7

[1] = 37 °C, time points 2, 5, 10, 30 min
[2] = PAR-based peptides, 37 °C, 2, 5, 10 and 30 min

Chain of tryptase (Q15661 31-275): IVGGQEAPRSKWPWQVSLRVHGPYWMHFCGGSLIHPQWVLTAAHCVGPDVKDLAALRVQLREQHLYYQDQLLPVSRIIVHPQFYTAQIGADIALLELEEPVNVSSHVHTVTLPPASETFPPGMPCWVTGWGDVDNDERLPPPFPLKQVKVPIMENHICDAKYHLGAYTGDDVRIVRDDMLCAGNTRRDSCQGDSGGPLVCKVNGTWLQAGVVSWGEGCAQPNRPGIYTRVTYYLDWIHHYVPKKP
Chain of pancreatic elastase I (P00772 27-266): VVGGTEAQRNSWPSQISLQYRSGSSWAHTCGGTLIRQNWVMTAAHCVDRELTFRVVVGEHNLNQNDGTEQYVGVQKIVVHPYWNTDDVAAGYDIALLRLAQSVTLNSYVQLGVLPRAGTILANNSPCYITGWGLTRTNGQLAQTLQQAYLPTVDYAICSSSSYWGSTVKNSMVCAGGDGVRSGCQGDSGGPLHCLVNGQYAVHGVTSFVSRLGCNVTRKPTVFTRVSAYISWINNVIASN

- Incubation time at which the first cleavage or decrease of the full-length peptide was observed, trypsin-1 (trypsin-1; [1]): 2 min
- TL disarming (D), Trypsin-1 (trypsin-1; [2]): −
- TL unmasking (U), Trypsin-1 (trypsin-1; [2]): +++ (ultrafast processing within 2 min)
- Incubation time at which the first cleavage or decrease of the full-length peptide was observed, trypsin-3 (trypsin-3; [1]): > 30 min
- TL disarming (D), Trypsin-3 (trypsin-3; [2]): −
- TL unmasking (U), Trypsin-3 (trypsin-3; [2]): −
- Incubation time at which the first cleavage or decrease of the full-length peptide was observed, tryptase (tryptase; [1]): 2 min
- TL disarming (D), Tryptase (tryptase; [2]): −
- TL unmasking (U), Tryptase (tryptase; [2]): +++ (ultrafast processing within 2 min)
- Incubation time at which the first cleavage or decrease of the full-length peptide was observed, thrombin (thrombin; [1]): > 30 min
- TL disarming (D), Thrombin (thrombin; [2]): −
- TL unmasking (U), Thrombin (thrombin; [2]): −
- Incubation time at which the first cleavage or decrease of the full-length peptide was observed, cathepsin G (cathepsin G; [1]): > 30 min
- TL disarming (D), Cathepsin G (cathepsin G; [2]): −
- TL unmasking (U), Cathepsin G (cathepsin G; [2]): −
- Incubation time at which the first cleavage or decrease of the full-length peptide was observed, neutrophil elastase (neutrophil elastase; [1]): 30 min
- TL disarming (D), Neutrophil Elastase (neutrophil elastase; [2]): + (processing after 10 or 30 min)
- TL unmasking (U), Neutrophil Elastase (neutrophil elastase; [2]): −
- Incubation time at which the first cleavage or decrease of the full-length peptide was observed, pancreatic elastase (pancreatic elastase I; [1]): > 30 min
- TL disarming (D), Pancreatic Elastase (pancreatic elastase I; [2]): −
- TL unmasking (U), Pancreatic Elastase (pancreatic elastase I; [2]): −
SMILES: CC[C@H](C)[C@H](NC(=O)[C@H](CC(C)C)NC(=O)[C@H](CO)NC(=O)[C@H](CCCNC(=N)N)NC(=O)CNC(=O)[C@H](CCCCN)NC(=O)[C@H](CO)NC(=O)[C@H](CO)NC(=O)[C@H](CCCNC(=N)N)NC(=O)[C@H](CC(N)=O)NC(=O)[C@@H](NC(=O)CNC(=O)[C@H](CCC(N)=O)NC(=O)[C@@H](NC(=O)[C@@H](N)[C@@H](C)O)[C@@H](C)CC)[C@@H](C)O)C(=O)NCC(=O)N[C@@H](CCCCN)C(=O)N[C@H](C(=O)N[C@@H](CC(=O)O)C(=O)NCC(=O)N[C@H](C(=O)N[C@@H](CO)C(=O)N[C@@H](Cc1c[nH]cn1)C(=O)N[C@H](C(N)=O)C(C)C)[C@@H](C)O)C(C)C [PAR2-based] (H-TIQGTNRSSKGRSLIGKVDGTSHV-NH2)
